Experimental findings from the NIST ThermoML archive (doi:10.1016/j.fluid.2013.06.019) are described below.

For the data set the following is noted: Crystal; Heating/Cooling curves.

Each structure is given as a SMILES string. ± gives the expanded uncertainty stated by the source.

For the compound `C=C(F)C(F)(F)F` [2,3,3,3-tetrafluoro-1-propene], the Triple point temperature is reported as 122.6 ± 2 K.
On to `O=C=O` [carbon dioxide], for which the Triple point temperature was 216.6 ± 2 K.
`F/C=C/C(F)(F)F` [trans-1,3,3,3-tetrafluoropropene]: the Triple point temperature amounted to 168.8 ± 2 K.
